Experiment [1] deals with NF-κB activity in MCF7/DOX cells. Kind of experiment: pNF-κB-SEAP reporter assay. Format: cell-based, human. Particulars: MCF-7/DOX; glucosamine 5 mM; 24 hrs. As for the experimental part: (§1) MCF7/DOX and MDA231 cell lines were cultured in media supplemented with 10% fetal bovine serum (Gibco BRL), 1 mM sodium pyruvate (Gibco BRL) and 100 U/ml penicillin-streptomycin (Gibco BRL) at 37° C. in a humid 5% CO2 atmosphere. A pNF-κB-SEAP vector was transfected into the cells. 24 hrs after transfection, the cells were cultured in the presence of or absence of glucosamine (represented by GM, 5 mM) for 24 hrs. The cell culture was subjected to an SEAP assay, and the cells, after being harvested, were subjected to a β-galactosidase assay. The values obtained for the SEAP assay were corrected for transfection efficiency with a pGAL plasmid (1 μg). β-Galactosidase activity was measured to correct the SEAP activity. The SEAP assay was conducted according to the procedure set forth by the manufacturer (BD Biosciences Clontech, Co.). […] These experiments were done in triplicate and repeated at least three times. The values of each experiment are the mean of three independent experiments and the standard deviations.
(In general: In a reporter assay the amount or activity of a reporter protein is the signal.)

Experiment [2] deals with NF-κB activity in MDA231 cells. Kind of experiment: pNF-κB-SEAP reporter assay. Format: cell-based, human. The note with it: MDA-231; glucosamine 5 mM; 24 hrs. As for the experimental part: as §1
For a further experiment, the system named is I-κBα in MCF7/DOX cells. As to the kind of experiment: Western blotting against I-κBα, cytoplasm fractions. Particulars: MCF-7/DOX; cultured 1 hr; cytoplasm fraction. Format: cell-based, human. As for the experimental part: (§2) Glucosamine was analyzed for its effect on I-κBα degradation. For this, MCF7/DOX and MDA231 cells were cultured for 1 hr and cytoplasm fractions thereof were harvested for Western blotting against I-κBα. Western blotting results are shown in the upper panel of FIG. 3B. Western blotting was quantified using a densitometer, and the results are depicted in the lower panel of FIG. 3B. For each value, the mean of three independent experiments and standard deviations are given.
On the technique in general: In western blotting, separated proteins are transferred to a membrane and probed.

In the next experiment the test system is I-κBα in MDA231 cells. Described as above. Format: cell-based, human. Particulars: MDA-231; cultured 1 hr; cytoplasm fraction. How it is done: as §2
Experiment [3] concerns MCF 7/DOX cells (doxorubicin resistant). As to the kind of experiment: MTT cytotoxicity assay, doxorubicin with or without glucosamine. Format: cell-based, human. How it is done:
(§3) Human breast cancer cell line MDA-231 (doxorubicin resistant) was purchased from ATCC. MCF-7/DOX (doxorubicin resistant) was obtained from Dr. Kenneth H. Cowan (University of Nebraska Medical Center, 986805 Nebraska Medical Center, Omaha, Nebr. 68198-6805, USA). These cell lines were maintained in media supplemented with 10% fetal bovine serum (Gibco BRL), 1 mM sodium pyruvate (Gibco BRL), and 100 U/ml penicillin-streptomycin (Gibco BRL) at 37° C. in a humid 5% CO2 atmosphere and subcultured every two or three days.
(§4) An MTT assay was conducted through […] analysis on the reduction of yellow tetrazolium salt into purple formazan in the mitochondria of viable cells. Cells were seeded at a population of 1×10^5 cells/well in 24-well plates. After incubation for 24 hrs, the cells were exposed to doxorubicin. This anticancer agent was administered at a dose of 90 μM to MCF 7/DOX and 5 μM to MDA 231. A control was not treated with doxorubicin. On the very day of analysis, the culture medium in each well was substituted with a fresh medium containing MTT (3-(4,5-dimethylthiazol-2-yl)-2,5-diphenyltetrazolium) (Sigma) at a concentration of 0.5 mg per ml, followed by incubation therein for an additional 4 hrs. After the removal of the medium, 500 μl of DMSO was added to each well and the formazan crystals were dissolved using an orbital shaker. Cell viability was represented as a percentage of a test group to the control. These experiments were done in triplicate and repeated at least three times. For each experiment, the mean of three independent experiments and the standard deviations are given.
(§5) MTT assay was conducted to examine whether glucosamine increases the sensitivity of breast cancer cells to anticancer agents. MCF 7/DOX and MDA 231 cell lines, both resistant to anticancer agents, were treated with doxorubicin and glucosamine (1.0 to 10 mM) for 24 hrs. Controls were not treated with glucosamine, while doxorubicin was administered at concentrations of 5 μM to MDA-MB 231, and at a concentration of 90 μM to MCF-7/DOX.

For experiment [4], the system named is MDA 231 cells (doxorubicin resistant). Described as above. Format: cell-based, human. As for the experimental part:
as §3, §4, §5

In the next experiment the test system is MDA 468 cells. As to the kind of experiment: MTT cytotoxicity assay, anticancer agent-sensitive line. Format: cell-based. The note with it: MDA 468, sensitive to anticancer agent. As for the experimental part: as §4
(§6) As measured through an MTT assay, almost all MCF 7 and MDA 468, both sensitive to anticancer agent, died, whereas apoptosis took place in about 50% of the anticancer agent-resistant cell lines.
For orientation: Tetrazolium dyes change colour on reduction, which living cells bring about.

A further experiment deals with MCF 7 cells. The experiment is described as above. Format: cell-based. Particulars: MCF 7, sensitive to anticancer agent. How it is done:
as §4, §6

We go through 2 molecules from patent US8343943B2, “Cancer sensitizer comprising glucosamine, glucosamine derivatives or salts thereof” (National Cancer Center, priority 2006, dated 2013).

Regarding `N[C@H]1C(O)O[C@H](CO)[C@@H](O)[C@@H]1O` (stereo partly drawn) [glucosamine], the NF-κB activity result in experiment [1] and in experiment [2] was “decrease” throughout. In addition, the I-κBα level entry in the experiment with I-κBα in MCF7/DOX cells and with I-κBα in MDA231 cells was “increase” each time. The “sensitivity to doxorubicin when treated with glucosamine vs not treated” value in experiment [3] (MCF 7/DOX, doxorubicin 90 μM, glucosamine 1.0 to 10 mM, 24 hrs) is listed as “twice as (two times more=three times as) sensitive”; in experiment [4] (MDA 231, doxorubicin 5 μM, glucosamine 1.0 to 10 mM, 24 hrs) it was “twice as (two times more=three times as) sensitive”. Further, the “apoptosis frequency, anticancer agent in combination with glucosamine vs alone” value in experiment [3] (chemoresistant cells, FIG. 1 (MCF/DOX)) is “twice as frequently”; in experiment [4] (chemoresistant cells, FIG. 2 (MDA231)), “twice as frequently”.

Regarding `COc1cccc2c1C(=O)c1c(O)c3c(c(O)c1C2=O)C[C@@](O)(C(=O)CO)C[C@@H]3O[C@H]1C[C@H](N)[C@H](O)[C@H](C)O1` [doxorubicin, reference compound], the apoptosis of cells result is given as “about 50%” in experiment [3] (MCF 7/DOX, doxorubicin 90 μM alone) and “about 50%” in experiment [4] (MDA 231, doxorubicin 5 μM alone). Further, the cell death result with MDA 468 cells and in the experiment on MCF 7 cells was “almost all” throughout.
